Source: ChEMBL document CHEMBL4257082, “Nhe3-binding compounds and methods for inhibiting phosphate transport” (2016)

Test system: Rattus norvegicus
Experiment: In vivo inhibition of NHE3 in Sprague-Dawley rat assessed as inhibition of sodium absorption from intestinal lumen by measuring urinary sodium concentration at 10 mg/kg, po via gavage measured after 16 hrs relative to control
Type: functional
Design: scale not given: the % may be the effect or the level left
Details: not given

| Compound | Activity [%] |
| --- | --- |
| CN1Cc2c(Cl)cc(Cl)cc2[C@H](c2cccc(S(=O)(=O)NCCOCCOCCNC(=O)CN3CCN(CC(=O)NCCOCCOCCOCCNS(=O)(=O)c4cccc([C@@H]5CN(C)Cc6c(Cl)cc(Cl)cc65)c4)CCN(CC(=O)NCCOCCOCCOCCNS(=O)(=O)c4cccc([C@@H]5CNCc6c(Cl)cc(Cl)cc65)c4)CCN(CC(=O)NCCOCCOCCOCCNS(=O)(=O)c4cccc([C@@H]5CN(C)Cc6c(Cl)cc(Cl)cc65)c4)CC3)c2)C1 | 82 |
| O=C(NCCCCNC(=O)NCCOCCOCCNS(=O)(=O)c1ccc(O[C@H]2c3cc(Cl)cc(Cl)c3C[C@@H]2N2CC[C@@H](O)C2)cc1)NCCOCCOCCNS(=O)(=O)c1ccc(O[C@H]2c3cc(Cl)cc(F)c3C[C@@H]2N2CC[C@@H](O)C2)cc1 | 104 |
| CN1Cc2c(Cl)cc(Cl)cc2[C@@H](c2ccc(S(=O)(=O)NCCOCCOCCNC(=O)NCCCCNC(=O)NCCOCCOCCNS(=O)(=O)c3cccc([C@@H]4CN(C)Cc5c(Cl)cc(Cl)cc54)c3)cc2)C1.Cl.Cl | 68 |
| CN1Cc2c(Cl)cc(Cl)cc2[C@H](c2ccc(S(=O)(=O)NCCOCCOCCNC(=O)NCCCCNC(=O)NCCOCCOCCNS(=O)(=O)c3cccc([C@@H]4CN(C)Cc5c(Cl)cc(Cl)cc54)c3)cc2)C1.Cl.Cl | 90 |
| CN1Cc2c(Cl)cc(Cl)cc2[C@H](c2cccc(S(=O)(=O)NCCOCCOCCNC(=O)NCCN(CCNC(=O)NCCOCCOCCNS(=O)(=O)c3cccc([C@@H]4CN(C)Cc5c(Cl)cc(Cl)cc54)c3)C(=O)CCCOCCOCCOCCOCCC(=O)N(CCNC(=O)NCCOCCOCCNS(=O)(=O)c3cccc([C@@H]4CN(C)Cc5c(Cl)cc(Cl)cc54)c3)CCNC(=O)NCCOCCOCCNS(=O)(=O)c3cccc([C@@H]4CN(C)Cc5c(Cl)cc(Cl)cc54)c3)c2)C1 | 47 |
| CCCCCCCCOCCOCCOCCOCCCOCCOC(=O)NCCOCCOCCOCCNS(=O)(=O)c1cccc([C@@H]2CN(C)Cc3c(Cl)cc(Cl)cc32)c1 | 86 |

Test system: Rattus norvegicus
Experiment: In vivo inhibition of NHE3 in Sprague-Dawley rat assessed as inhibition of sodium absorption from intestinal lumen by measuring urinary sodium concentration at 3 mg/kg, po via gavage measured after 16 hrs relative to control
Type: functional
Design: scale not given: the % may be the effect or the level left
Details: not given

| Compound | Activity [%] |
| --- | --- |
| CN1Cc2c(Cl)cc(Cl)cc2[C@H](c2ccc(S(=O)(=O)N(C)CCOCCOCCNC(=O)CCN(CCC(=O)NCCOCCOCCN(C)S(=O)(=O)c3cccc([C@@H]4CN(C)Cc5c(Cl)cc(Cl)cc54)c3)CCC(=O)NCCOCCOCCN(C)S(=O)(=O)c3cccc([C@@H]4CN(C)Cc5c(Cl)cc(Cl)cc54)c3)cc2)C1 | 64 |

Test system: not listed separately
Experiment: Oral bioavailability in human
Type: ADME, organism-based
Details: in vivo

| bioavailability [%] | Compound |
| --- | --- |
| 0.6 | OC[C@H]1O[C@@H](O[C@@H]2[C@@H](CO)O[C@](O)(CO)[C@H]2O)[C@H](O)[C@@H](O)[C@H]1O (mixture of isomers) [LACTULOSE] |
| 96 | C=CCc1ccccc1OCC(O)CNC(C)C (stereo unspecified) [ALPRENOLOL] |
| 17 | O=C(O)P(=O)(O)O [FOSCARNET] |
| 26 | OC[C@@H](O)[C@@H](O)[C@H](O)[C@H](O)CO [MANNITOL] |
| 64 | Cc1ccccc1N1C(=O)c2cc(S(N)(=O)=O)c(Cl)cc2NC1C (stereo unspecified) [METOLAZONE] |
| 2.3 | O=C(O)c1cc(/N=N/c2ccc(O)c(C(=O)O)c2)ccc1O [OLSALAZINE] |
| 97 | C=CCOc1ccccc1OCC(O)CNC(C)C (stereo unspecified) [OXPRENOLOL] |
| 95 | CC(=O)Nc1ccc(OCC(O)CNC(C)C)cc1 (stereo unspecified) [PRACTOLOL] |
| 0.3 | OC[C@H]1O[C@H](OC[C@H]2O[C@H](O[C@]3(CO)O[C@H](CO)[C@@H](O)[C@@H]3O)[C@H](O)[C@@H](O)[C@@H]2O)[C@H](O)[C@@H](O)[C@H]1O [RAFFINOSE] |
| 12 | O=C(O)c1cc(/N=N/c2ccc(S(=O)(=O)Nc3ccccn3)cc2)ccc1O [SULFASALAZINE] |
| 36 | CCN1CCCC1CNC(=O)c1cc(S(N)(=O)=O)ccc1OC (stereo unspecified) [SULPIRIDE] |
| 55 | NC[C@H]1CC[C@H](C(=O)O)CC1 [TRANEXAMIC ACID] |

| Compound | bioavailability [%] |
| --- | --- |
| Cc1cc(=O)n(-c2ccccc2)n1C [ANTIPYRINE] | 97 |
| CC(C)NCC(O)COc1cccc2[nH]ccc12 (stereo unspecified) [PINDOLOL] | 92 |
